Test results published in US20250059172A1, “INDAZOLE COMPOUND AND PHARMACEUTICAL” (NIPPON SHINYAKU CO., LTD., priority 2021, published 2025).
Counter-ions that a name gives are not always drawn.

Key:
human A549 cells = assay: Inhibition test of PGE2 production using human A549 cells; format: cell-based; details: IL-1β stimulated A549 cells, 24 h, PGE2 by HTRF, read-out: A549 cell inhibition of PGE2 production IC50
Procedure: 100 μL of RPMI medium (Sigma) comprising 10% FBS and human A549 cells was seeded in a 96-well plate to […] cells per well, and incubated overnight. The medium was then removed and washed with phosphate-buffered saline, and added to a DMSO solution of the test compound or RPMI medium comprising 3% FBS with DMSO to a final concentration of 0.1% DMSO. After incubation for 60 minutes, IL-1P (5 ng/well, BioLegend) was added to the solution. After incubation at 37° C. for 24 h, PGE2 in the medium was quantified using the HTRF kit (Cisbio International) and PGF2a was also quantified using the EIA kit (Cayman chemical). Solutions without the test compound were used as positive controls, and solutions without the test compound and IL-1β were used as negative controls. 100% activity was defined as production of PGE2 and PGF2a in the positive control minus those in the negative control. IC50 values were then determined using standard methods.

human mPGES-1 = human mPGES-1 (Homo sapiens (Human), UniProt O14684); assay: mPGES-1 inhibitory activity test; format: biochemical; details: microsomes of CHO-K1 cells expressing human mPGES-1, PGH2 1 μM, PGE2 by HTRF; read-out: mPGES-1 inhibition (IC50 nM)
Sequence of human mPGES-1 (O14684 whole entry): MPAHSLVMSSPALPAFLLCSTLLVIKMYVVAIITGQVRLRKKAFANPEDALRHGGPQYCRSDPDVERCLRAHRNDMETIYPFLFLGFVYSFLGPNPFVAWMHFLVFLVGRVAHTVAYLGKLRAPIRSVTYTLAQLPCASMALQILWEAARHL
Procedure: mPGES-1 microsomal specimens were prepared by transiently transfecting CHO-K1 cells (DS Pharma Biomedical Co. Ltd) with a plasmid encoding human mPGES-1 cDNA using FuGENE 6 Transfection Reagent (Promega). The prepared mPGES-1 microsome specimens were diluted in potassium phosphate buffer of pH 7.4 comprising 2.5 mM reduced glutathione (Sigma-Aldrich), DMSO solution of a test compound or DMSO was added to a final concentration of 1% of DMSO, and then incubated at 4° C. for 20 minutes. The enzymatic reaction was then initiated by adding a solution of PGH2 (Cayman chemical) substrate of a final concentration 1 μM and incubated at 4° C. for 60 seconds. The reaction was terminated by adding a solution of ferric chloride (STREM CHEMICALS) and citric acid (Wako Pure Chemical Industries) salt to a final concentration of 5 mg/mL and 250 mM, respectively. The formed PGE2 was quantified using the HTRF kit (Cisbio International). Solutions without the test compound were used as positive controls, and solutions without the test compound and microsomal specimens were used as negative controls. 100% activity was defined as production of PGE2 in the positive control minus that in the negative control. The percentage inhibition of production of PGE2 at final concentrations of 10 nM and 100 nM of the test compound was then calculated, or IC50 values were determined using standard methods.

SMILES	IC50 (human A549 cells) [nM]	IC50 (human mPGES-1) [nM]
Cc1ncc(-n2ncc3c(NC(=O)c4cc(CNC(=O)C(C)(C)C)ccc4Cl)cccc32)cn1 [Example 52, 2-Chloro-5-{[(2,2-dimethylpropanoyl)amino]methyl}-N-[1-(2-methylpyrimidin-5-yl)-1H-indazol-4-yl]benzamide]	20.9	3.6
CC(C)(C)C(=O)NCc1ccc(Cl)c(C(=O)Nc2cccc3c2cnn3-c2ccc(C#N)cc2)c1 [Example 55, 2-Chloro-N-[1-(4-cyanophenyl)-1H-indazol-4-yl]-5-([(2,2-dimethylpropanoyl)amino]methyl)benzamide]	1.8	1.3
Cc1ncccc1-n1ncc2c(NC(=O)c3cc(CNC(=O)C(C)(C)C)ccc3Cl)cccc21 [Example 56, 2-Chloro-5-{[(2,2-dimethylpropanoyl)amino]methyl}-N-[1-(2-methylpyridin-3-yl)-1H-indazol-4-yl]benzamide hydrochloride]	183	23.6
CC(C)(C)C(=O)NCc1ccc(Cl)c(C(=O)Nc2cccc3c2cnn3-c2cncc(C(F)(F)F)c2)c1 [Example 57, 2-Chloro-5-{[(2,2-dimethylpropanoyl)amino]methyl}-N-{1-[5-(trifluoromethyl)pyridin-3-yl]-1H-indazol-4-yl}benzamide]	5.7	19.8
Cc1cncc(-n2ncc3c(NC(=O)c4cc(CNC(=O)C(C)(C)C)ccc4Cl)cccc32)c1 [Example 60, 2-Chloro-5-{[(2,2-dimethylpropanoyl)amino]methyl}-N-[1-(5-methylpyridin-3-yl)-1H-indazol-4-yl]benzamide hydrochloride]	10.4	6.7
CC(C)(C)C(=O)NCc1ccc(Cl)c(C(=O)Nc2cccc3c2cnn3-c2cncc(C3CC3)c2)c1 [Example 64, 2-Chloro-N-[1-(5-cyclopropylpyridin-3-yl)-1H-indazol-4-yl]-5-{[(2,2-dimethylpropanoyl)amino]methyl}benzamide hydrochloride]	1.9	1.4
CC(C)(C)C(=O)NCc1ccc(Cl)c(C(=O)Nc2cccc3c2cnn3-c2cccc(OC(F)(F)F)c2)c1 [Example 71, 2-Chloro-5-{[(2,2-dimethylpropanoyl)amino]methyl}-N-{1-[3-(trifluoromethoxy)phenyl]-1H-indazol-4-yl}benzamide]	0.6	0.1
CC(C)(C)C(=O)NCc1ccc(Cl)c(C(=O)Nc2cccc3c2cnn3-c2ccc(C#N)nc2)c1 [Example 72, 2-Chloro-N-[1-(6-cyanopyridin-3-yl)-1H-indazol-4-yl]-5-([(2,2-dimethylpropanoyl)amino]methyl)benzamide]	11.5	6.2
CC(C)(C)C(=O)NCc1ccc(Cl)c(C(=O)Nc2cccc3c2cnn3-c2ccc(CO)nc2)c1 [Example 75, 2-Chloro-5-{[(2,2-dimethylpropanoyl)amino]methyl}-N-{1-[6-(hydroxymethyl)pyridin-3-yl]-1H-indazol-4-yl}benzamide]	260	71.1
CC(C)(C)C(=O)NCc1ccc(Cl)c(C(=O)Nc2cccc3c2cnn3-c2ccc(C(F)(F)F)nc2)c1 [Example 77, 2-Chloro-5-{[(2,2-dimethylpropanoyl)amino]methyl}-N-{1-[6-(trifluoromethyl)pyridin-3-yl]-1H-indazol-4-yl}benzamide]	1	1.1
COCc1cncc(-n2ncc3c(NC(=O)c4cc(CNC(=O)C(C)(C)C)ccc4Cl)cccc32)c1 [Example 78, 2-Chloro-5-{[(2,2-dimethylpropanoyl)amino]methyl}-N-{1-[5-(methoxymethyl)pyridin-3-yl]-1H-indazol-4-yl}benzamide hydrochloride]	9.8	10.4
Cc1cc(OC(F)(F)F)ccc1-n1ncc2c(NC(=O)c3cc(CNC(=O)C(C)(C)C)ccc3Cl)cccc21 [Example 79, 2-Chloro-5-{[(2,2-dimethylpropanoyl)amino]methyl}-N-{1-[2-methyl-4-(trifluoromethoxy)phenyl]-1H-indazol-4-yl}benzamide]	3.4	1

The next lines start with the values.

IC50 (human A549 cells) [nM]	IC50 (human mPGES-1) [nM]	SMILES
1.8	2.6	Cc1ccc(-n2ncc3c(NC(=O)c4cc(CNC(=O)C(C)(C)C)ccc4Cl)cccc32)cc1Cl [Example 53, 2-Chloro-N-[1-(3-chloro-4-methylphenyl)-1H-indazol-4-yl]-5-([(2,2-dimethylpropanoyl)amino]methyl)benzamide]
6.2	9.5	Cc1ccc(-n2ncc3c(NC(=O)c4cc(CNC(=O)C(C)(C)C)ccc4Cl)cccc32)cn1 [Example 54, 2-Chloro-5-{[(2,2-dimethylpropanoyl)amino]methyl}-N-[1-(6-methylpyridin-3-yl)-1H-indazol-4-yl]benzamide hydrochloride]
5.9	5.9	Cc1cc(-n2ncc3c(NC(=O)c4cc(CNC(=O)C(C)(C)C)ccc4Cl)cccc32)ccn1 [Example 58, 2-Chloro-5-{[(2,2-dimethylpropanoyl)amino]methyl}-N-[1-(2-methylpyridin-4-yl)-1H-indazol-4-yl]benzamide hydrochloride]
2.9	3.5	COc1cncc(-n2ncc3c(NC(=O)c4cc(CNC(=O)C(C)(C)C)ccc4Cl)cccc32)c1 [Example 61, 2-Chloro-5-{[(2,2-dimethylpropanoyl)amino]methyl}-N-[1-(5-methoxypyridin-3-yl)-1H-indazol-4-yl]benzamide hydrochloride]
3.6	2.4	COc1ccc(-n2ncc3c(NC(=O)c4cc(CNC(=O)C(C)(C)C)ccc4Cl)cccc32)cc1C(F)(F)F [Example 62, 2-Chloro-5-{[(2,2-dimethylpropanoyl)amino]methyl}-N-{1-[4-methoxy-3-(trifluoromethyl)phenyl]-1H-indazol-4-yl}benzamide]
13.7	1	COc1ccc(-n2ncc3c(NC(=O)c4cc(CNC(=O)C(C)(C)C)ccc4Cl)cccc32)cn1 [Example 63, 2-Chloro-5-{[(2,2-dimethylpropanoyl)amino]methyl}-N-[1-(6-methoxypyridin-3-yl)-1H-indazol-4-yl]benzamide]
3.6	2.2	CCOc1ccc(-n2ncc3c(NC(=O)c4cc(CNC(=O)C(C)(C)C)ccc4Cl)cccc32)cc1 [Example 65, 2-Chloro-5-{[(2,2-dimethylpropanoyl)amino]methyl}-N-[1-(4-ethoxyphenyl)-1H-indazol-4-yl]benzamide]
4	0.2	CCOc1cccc(-n2ncc3c(NC(=O)c4cc(CNC(=O)C(C)(C)C)ccc4Cl)cccc32)c1 [Example 66, 2-Chloro-5-{[(2,2-dimethylpropanoyl)amino]methyl}-N-[1-(3-ethoxyphenyl)-1H-indazol-4-yl]benzamide]
5.1	3.7	COc1ccc(-n2ncc3c(NC(=O)c4cc(CNC(=O)C(C)(C)C)ccc4Cl)cccc32)cc1OC [Example 67, 2-Chloro-N-[1-(3,4-dimethoxyphenyl)-1H-indazol-4-yl]-5-{[(2,2-dimethylpropanoyl)amino]methyl}benzamide]
2	6.7	CC(C)Oc1cccc(-n2ncc3c(NC(=O)c4cc(CNC(=O)C(C)(C)C)ccc4Cl)cccc32)c1 [Example 68, 2-Chloro-5-{[(2,2-dimethylpropanoyl)amino]methyl}-N-{1-[3-(propan-2-yloxy)phenyl]-1H-indazol-4-yl}benzamide]
3.3	1.2	COc1cc(-n2ncc3c(NC(=O)c4cc(CNC(=O)C(C)(C)C)ccc4Cl)cccc32)ccn1 [Example 73, 2-Chloro-5-{[(2,2-dimethylpropanoyl)amino]methyl}-N-[1-(2-methoxypyridin-4-yl)-1H-indazol-4-yl]benzamide hydrochloride]
15.6	1.3	COCc1ccc(-n2ncc3c(NC(=O)c4cc(CNC(=O)C(C)(C)C)ccc4Cl)cccc32)cn1 [Example 74, 2-Chloro-5-{[(2,2-dimethylpropanoyl)amino]methyl}-N-{1-[6-(methoxymethyl)pyridin-3-yl]-1H-indazol-4-yl}benzamide hydrochloride]
5.2	2.4	Cc1cc(-n2ncc3c(NC(=O)c4cc(CNC(=O)C(C)(C)C)ccc4Cl)cccc32)cc(C)n1 [Example 76, 2-Chloro-5-{[(2,2-dimethylpropanoyl)amino]methyl}-N-[1-(2,6-dimethylpyridin-4-yl)-1H-indazol-4-yl]benzamide hydrochloride]
